Here are results for five compounds from patent publication US8859022B2, “Antihypertensive agents” (Bourbon Corporation, priority 2011, dated 2014).

Data set [1] in a line: Oral absorbability evaluation test of proanthocyanidins extracted from Boysenberry seed (LC/MS/MS of blood plasma). Type of data set: in vivo, Wistar rats. To be noted: Boysenberry seed (present invention); for B/A (blood concentration after 2 hours / administration quantity): A in mg/kg, B in μg/mL; for Blood concentration after 2 hours B: partitioned concentrate of seed extract 1000 mg/kg oral, Wistar rats, plasma. How it is done: The test animal used was Wistar rats (males, aged 9 weeks, with initial weight of 190 to 210 g, obtained from Japan SLC, Inc.). After fasting for 12 hours, the Wister rats were forcefully orally administered each 1000 mg/kg of the partitioned concentrate of seed extract or the partitioned concentrate of thermally-treated seed extract obtained in Example 1. Then, every 1, 2, 4, and 6 hours after the administration, the rats were killed to collect the whole blood. Each whole blood was centrifuged for 10 minutes at 4° C. at 2,000×g to obtain blood plasma as a supernatant. To 1 mL of each blood plasma were added 30 μL of 50% formic acid and 100 μL of 10 mM ascorbic acid solution to mix together, and to 1 mL of the mixed blood plasma solution were added 50 μL of (1 μg of) a catechol solution as an internal standard reagent and 30 μL of phosphoric acid to prepare each sample for analysis. Regarding the samples, measurements of a procyanidin dimer, a propelargonidin dimer, a procyanidin trimer, and a propelargonidin trimer were carried out at molecular weights of 577/289, 561/289, 865/289, and 849/289, using a liquid chromatography-mass spectrometry (LC/MS) (Shimadzu Prominence UFLC manufactured by Shimadzu Corp.; with ODS column; gradient elution with formic acid, methanol, and water) and MS/MS (API 3200 manufactured by Applied Biosystems Co. Ltd., negative-ion mode) to determine the quantities of the proanthocyanidins in the blood plasma. […] Additionally, FIG. 5 and Table 3 show LC/MS charts of the measurements of proanthocyanidin dimer and trimer components in the blood plasma after 2 hours of the administration of the partitioned concentrate of seed extract.

For data set [2] the following is noted: Apple, literature values; cited from earlier work.
The nature of data set [3]: Literature oral absorption of apple procyanidins (J. Agric. Food Chem., 54, 884-892, 2006). Type of data set: in vivo, rats. The following applies: worked out from literature values, A in mg/kg. The source says:
Studies on oral absorbability of various kinds of proanthocyanidins have reported that oligomers with a low degree of polymerization are efficiently orally absorbed (see R. R. Holt, S. A. Lazarus, M. C. Sullards, Q. Y. Zhu, D. D. Schramm, J. F. Hammerstone, C. G. Fraga, H. H. Schmitz and C. L. Keen, Procyanidin dimer B2 [epicatechin-(4β-8)-epicatechin] in human plasma after the consumption of a flavanol-rich cocoa. Am. J. Clin. Nutr. 2002, 76, p. 798-804. T. Shoji, S. Masumoto, N. Moriichi, H. Akiyama, T. Kanda, Y. Ohtake, Y. Goda. Apple procyanidin oligomers absorption in rats after oral administration: Analysis of procyanidins in plasma using the porter method and High-Performance Liquid Chromatography/Tandem Mass Spectrometry. J. Agric. Food Chem. 2006, 54, p. 884-892).

Where two headings read alike, the source gives them in different places.

`Oc1cc(O)c2c(c1)O[C@H](c1ccc(O)c(O)c1)[C@@H](O)[C@@H]2c1c(O)cc(O)c2c1O[C@H](c1ccc(O)c(O)c1)[C@H](O)C2` [PC dimer B4, Procyanidin B4]: in data set [1], the “B/A (blood concentration after 2 hours / administration quantity)” value is given as 32.9 (×10^−6) (kg/ml) and the “Blood concentration after 2 hours B” value worked out at 560 ng/mL.

Regarding `Oc1cc(O)c2c(c1)O[C@H](c1ccc(O)c(O)c1)[C@H](O)[C@H]2c1c(O)cc(O)c2c1O[C@H](c1ccc(O)c(O)c1)[C@@H](O)C2` [PC dimer B1], the “Blood concentration after 2 hours B” value in data set [2] is 120 ng/mL. Also, the “B/A (blood concentration after 2 hours / administration quantity)” value in data set [3] was 2.4 (×10^−6) (kg/ml).

Consider `Oc1cc(O)c2c(c1)O[C@H](c1ccc(O)c(O)c1)[C@@H](O)[C@@H]2c1c(O)cc(O)c2c1O[C@H](c1ccc(O)c(O)c1)[C@@H](O)C2` [PC dimer B3, Procyanidin B3], for which, in data set [1], the “B/A (blood concentration after 2 hours / administration quantity)” value is reported as 30.0 (×10^−6) (kg/ml) and the “Blood concentration after 2 hours B” value came to 120 ng/mL.

`Oc1cc(O)c2c(c1)O[C@H](c1ccc(O)c(O)c1)[C@H](O)[C@H]2c1c(O)cc(O)c2c1O[C@H](c1ccc(O)c(O)c1)[C@H](O)C2` [PC dimer B2, epicatechin-(4β-8)-epicatechin]: in data set [2], the “Blood concentration after 2 hours B” value is 230 ng/mL. In addition, in data set [3], the “B/A (blood concentration after 2 hours / administration quantity)” value is listed as 2.5 (×10^−6) (kg/ml).

In the case of `Oc1cc(O)c2c(c1)O[C@H](c1ccc(O)c(O)c1)[C@H](O)[C@H]2c1c(O)cc(O)c2c1O[C@H](c1ccc(O)c(O)c1)[C@H](O)[C@H]2c1c(O)cc(O)c2c1O[C@H](c1ccc(O)c(O)c1)[C@H](O)C2` [PC trimer C1], the “Blood concentration after 2 hours B” value in data set [2] was 120 ng/mL; in data set [1], 200 ng/mL. Also, the results for the “B/A (blood concentration after 2 hours / administration quantity)” value in data set [1] and in data set [3] were 25.0 (×10^−6) (kg/ml) and 1.9 (×10^−6) (kg/ml), respectively.
